Target: MAGE-A11:PCF11 (Homo sapiens (Human), UniProt P43364)
Experiment: TR-FRET single point screening at 15 μM
Assay type: binding
Design: unit not given here
Summary of the method: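 Single-point screen at 15 μM (0.25% DMSO) measuring disruption of GST-MAGEA11 (5 nM) binding to FAM-PCF11_4 peptide (200 nM) detected by Tb-anti-GST (5 nM). Buffer 50 mM Tris pH 7.5, 20 mM MgCl2, 0.1 mg/ml BSA, 1 mM DTT; 90 min at ~25 °C; 520/490 nm ratio converted to % inhibition versus controls.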

[1] = single point TR-FRET screening of quinoline compounds against MAGE-A11:PCF11, 15 μM
[2] = single point TR-FRET screening at 15 μM against MAGE-A11:PCF11

Chain of MAGE-A11:PCF11 (P43364 218-429): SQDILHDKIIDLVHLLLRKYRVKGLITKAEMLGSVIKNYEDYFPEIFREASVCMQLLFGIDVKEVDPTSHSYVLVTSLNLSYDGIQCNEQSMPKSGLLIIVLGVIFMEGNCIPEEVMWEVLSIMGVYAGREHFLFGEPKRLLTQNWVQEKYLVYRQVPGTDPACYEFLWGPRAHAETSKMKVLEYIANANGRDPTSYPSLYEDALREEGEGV

Row | SMILES | TR-FRET signal [1] | TR-FRET signal [2]
1 | Cn1ccnc1CN(CCCNc1ccnc2cc(Cl)ccc12)Cc1ccccc1 [SJ000520431] | 15.36 | 
2 | COC(=O)CCCCCN(CCCCNc1ccnc2cc(Cl)ccc12)Cc1ccccc1 [SJ000520432] |  | 23.58
3 | Clc1ccc2c(NCCCN(Cc3ccccc3)Cc3c[nH]c4ccccc34)ccnc2c1 [SJ000520433] | 40.19 | 
4 | Clc1ccc2c(NCCCCN(Cc3ccccc3)Cc3ccc4[nH]ccc4c3)ccnc2c1 [SJ000520434] |  | 69.44
5 | Cn1ccnc1CN(CCCCNc1ccnc2cc(Cl)ccc12)Cc1ccccc1 [SJ000520435] |  | 5.888
6 | Clc1ccc2c(NCCCCN(Cc3ccccc3)Cc3cccc4c3OCO4)ccnc2c1 [SJ000520436] |  | 21.65
7 | COc1ccc(CN(CCCNc2ccnc3cc(Cl)ccc23)Cc2ccccc2)cc1F [SJ000520437] | 23.65 | 
8 | COc1ccc(CN(CCCCNc2ccnc3cc(Cl)ccc23)Cc2ccccc2)cc1F [SJ000520438] |  | 13.15
9 | Cn1cc(CN(CCCNc2ccnc3cc(Cl)ccc23)Cc2ccccc2)c2ccccc21 [SJ000520439] | −9.311 | 
10 | Cn1cc(CN(CCCCNc2ccnc3cc(Cl)ccc23)Cc2ccccc2)c2ccccc21 [SJ000520440] |  | −14.35
11 | COc1ccc(F)c(CN(CCCCNc2ccnc3cc(Cl)ccc23)Cc2ccccc2)c1 [SJ000520441] |  | 14.55
12 | CCc1ccc(CN(CCCNc2ccnc3cc(Cl)ccc23)Cc2ccccc2)cc1 [SJ000520442] | 18.89 | 
13 | CCc1ccc(CN(CCCCNc2ccnc3cc(Cl)ccc23)Cc2ccccc2)cc1 [SJ000520443] |  | 29.91
14 | COc1ccc(C(F)(F)F)cc1CN(CCCCNc1ccnc2cc(Cl)ccc12)Cc1ccccc1 [SJ000520444] |  | 31.82
15 | COc1ccc(F)c(CN(CCCNc2ccnc3cc(Cl)ccc23)Cc2ccccc2)c1 [SJ000520445] | 4.762 | 
16 | Clc1ccc2c(NCCCCN(Cc3ccccc3)Cc3csc4ccccc34)ccnc2c1 [SJ000520446] |  | 33.98
17 | COc1ccc(OC(F)(F)F)cc1CN(CCCCNc1ccnc2cc(Cl)ccc12)Cc1ccccc1 [SJ000520447] |  | 26.66
18 | Clc1ccc2c(NCCCCN(Cc3ccccc3)Cc3nccs3)ccnc2c1 [SJ000520448] |  | −1.698
19 | Cc1ccc(F)cc1CN(CCCCNc1ccnc2cc(Cl)ccc12)Cc1ccccc1 [SJ000520449] |  | 42.32
20 | COc1ccc(C(F)(F)F)cc1CN(CCCNc1ccnc2cc(Cl)ccc12)Cc1ccccc1 [SJ000520450] | 23.18 | 
21 | FC(F)(F)Oc1ccc(CN(CCCCNc2ccnc3cc(Cl)ccc23)Cc2ccccc2)cc1 [SJ000520451] |  | 39.87
22 | COc1ccc(OC(F)(F)F)cc1CN(CCCNc1ccnc2cc(Cl)ccc12)Cc1ccccc1 [SJ000520452] | 20.44 | 
23 | Clc1ccc2c(NCCCCN(Cc3ccccc3)Cc3cccnc3Br)ccnc2c1 [SJ000520453] |  | 2.377
24 | Clc1ccc2c(NCCCN(Cc3ccccc3)Cc3csc4ccccc34)ccnc2c1 [SJ000520454] | 28.14 | 
25 | FC(F)(F)c1cccc(CN(CCCCNc2ccnc3cc(Cl)ccc23)Cc2ccccc2)c1 [SJ000520455] |  | 26.38
26 | Cc1csc(CN(CCCCNc2ccnc3cc(Cl)ccc23)Cc2ccccc2)n1 [SJ000520456] |  | −12.86

Row | SMILES | TR-FRET signal [1] | TR-FRET signal [2]
27 | FC(F)(F)Oc1cccc(CN(CCCCNc2ccnc3cc(Cl)ccc23)Cc2ccccc2)c1 [SJ000520457] |  | 33.31
28 | Cc1ccc(F)cc1CN(CCCNc1ccnc2cc(Cl)ccc12)Cc1ccccc1 [SJ000520458] | 29.77 | 
29 | FC(F)(F)Oc1ccccc1CN(CCCCNc1ccnc2cc(Cl)ccc12)Cc1ccccc1 [SJ000520459] |  | 30.86
30 | FC(F)(F)Oc1ccc(CN(CCCNc2ccnc3cc(Cl)ccc23)Cc2ccccc2)cc1 [SJ000520460] | 25.05 | 
31 | Clc1ccc2c(NCCCN(Cc3ccccc3)Cc3cc4ccccc4o3)ccnc2c1 [SJ000520461] | 5.6 | 
32 | Clc1ccc2c(NCCCN(Cc3ccccc3)Cc3cccnc3Br)ccnc2c1 [SJ000520462] | 9.715 | 
33 | Cc1csc(CN(CCCNc2ccnc3cc(Cl)ccc23)Cc2ccccc2)n1 [SJ000520463] | −10.47 | 
34 | FC(F)(F)Oc1cccc(CN(CCCNc2ccnc3cc(Cl)ccc23)Cc2ccccc2)c1 [SJ000520464] | 27.78 | 
35 | Fc1cccc(C(F)(F)F)c1CN(CCCCNc1ccnc2cc(Cl)ccc12)Cc1ccccc1 [SJ000520465] |  | 28.75
36 | FC(F)(F)c1cc(CN(CCCCNc2ccnc3cc(Cl)ccc23)Cc2ccccc2)ccc1Cl [SJ000520466] |  | 25.28
37 | Fc1cccc(C(F)(F)F)c1CN(CCCNc1ccnc2cc(Cl)ccc12)Cc1ccccc1 [SJ000520467] | 22.01 | 
38 | CCCN(CCCNc1ccnc2cc(C(F)(F)F)ccc12)Cc1c[nH]c2ccccc12 [SJ000520468] | 16.16 | 
39 | CCCN(CCCNc1ccnc2cc(C(F)(F)F)ccc12)Cc1cn(C)c2ccccc12 [SJ000520469] | 25.54 | 
40 | CCCN(CCCNc1ccnc2cc(C(F)(F)F)ccc12)Cc1ccccc1OC(F)(F)F [SJ000520470] | 5.934 | 
41 | CCCN(CCCNc1ccnc2cc(C(F)(F)F)ccc12)Cc1cccc(C(F)(F)F)c1 [SJ000520471] | 13.02 | 
42 | CCCN(CCCNc1ccnc2cc(C(F)(F)F)ccc12)Cc1cccc2c1OCO2 [SJ000520472] | 14.62 | 
43 | CCCN(CCCNc1ccnc2cc(C(F)(F)F)ccc12)Cc1cccc(OC(F)(F)F)c1 [SJ000520473] | 9.085 | 
44 | CCCN(CCCNc1ccnc2cc(C(F)(F)F)ccc12)Cc1ccc(OC(F)(F)F)cc1 [SJ000520474] | 17.38 | 
45 | CCCN(CCCNc1ccnc2cc(C(F)(F)F)ccc12)Cc1cc(F)ccc1OC [SJ000520475] | 15.75 | 
46 | CCCN(CCCNc1ccnc2cc(C(F)(F)F)ccc12)CCC(C)(C)C [SJ000520476] | 32.33 | 
47 | CCCCN(CCC)CCCNc1ccnc2cc(C(F)(F)F)ccc12 [SJ000520477] | 23.58 | 
48 | CCCN(CCCNc1ccnc2cc(C(F)(F)F)ccc12)Cc1cc(Br)cs1 [SJ000520478] | −9.243 | 
49 | CCCN(CCCNc1ccnc2cc(C(F)(F)F)ccc12)Cc1cc2ccccc2o1 [SJ000520479] | −20.41 | 
50 | CCCN(CCCNc1ccnc2cc(C(F)(F)F)ccc12)Cc1cc(OC)ccc1F [SJ000520480] | 11.96 | 
51 | CCCN(CCCNc1ccnc2cc(C(F)(F)F)ccc12)Cc1c(F)cccc1C(F)(F)F [SJ000520481] | 11.47 | 
52 | CCCN(CCCNc1ccnc2cc(C(F)(F)F)ccc12)Cc1cc2ccccc2s1 [SJ000520482] | 13.01 | 

Row | SMILES | TR-FRET signal [1] | TR-FRET signal [2]
53 | CCCN(CCCNc1ccnc2cc(C(F)(F)F)ccc12)Cc1csc2ccccc12 [SJ000520483] | 19.45 | 
54 | CCCN(CCCNc1ccnc2cc(C(F)(F)F)ccc12)Cc1nc2ccccc2s1 [SJ000520484] | 7.404 | 
55 | CCCN(CCCNc1ccnc2cc(C(F)(F)F)ccc12)Cc1cc(OC(F)(F)F)ccc1OC [SJ000520485] | 5.6 | 
56 | CCCN(CCCNc1ccnc2cc(C(F)(F)F)ccc12)Cc1cc(C(F)(F)F)ccc1OC [SJ000520486] | 8.188 | 
57 | O=[N+]([O-])c1ccc(CNCCCNc2ccnc3cc(Cl)ccc23)s1 [SJ000520912] | 6.284 | 
58 | Clc1ccc2c(NCCCNCc3ccoc3)ccnc2c1 [SJ000520913] | −11.15 | 
59 | COc1ccc2nc3cc(Cl)ccc3c(NCCCNCc3ccc4[nH]ccc4c3)c2c1 [SJ000520914] |  | −184.2
60 | COc1ccc2nc3cc(Cl)ccc3c(NCCCNCc3c(F)cccc3OC)c2c1 [SJ000520915] |  | −298.8
61 | COc1ccc2nc3cc(Cl)ccc3c(NCCCNCc3ccoc3)c2c1 [SJ000520916] |  | −299.4
62 | CCCN(CCC)CCCNc1c2ccc(Cl)cc2nc2ccc(OC)cc12 [SJ000520917] |  | −288.2
63 | CCCN(CCCNc1c2ccc(Cl)cc2nc2ccc(OC)cc12)Cc1ccncc1 [SJ000520918] | −1.797 | 
64 | CCCN(CCCNc1c2ccc(Cl)cc2nc2ccc(OC)cc12)Cc1ccccn1 [SJ000520919] |  | −146.2
65 | CCCN(CCCNc1c2ccc(Cl)cc2nc2ccc(OC)cc12)Cc1cccs1 [SJ000520920] |  | −164.1
66 | CCCN(CCCNc1c2ccc(Cl)cc2nc2ccc(OC)cc12)Cc1sccc1C [SJ000520921] | −83.81 | 
67 | CCCN(CCCNc1c2ccc(Cl)cc2nc2ccc(OC)cc12)Cc1ccsc1 [SJ000520922] |  | −258
68 | CCCN(CCCNc1c2ccc(Cl)cc2nc2ccc(OC)cc12)Cc1ccc[nH]1 [SJ000520923] |  | −271
69 | CCCN(CCCNc1c2ccc(Cl)cc2nc2ccc(OC)cc12)Cc1ccc(Br)s1 [SJ000520924] | −56.45 | 
70 | CCCN(CCCNc1c2ccc(Cl)cc2nc2ccc(OC)cc12)Cc1ccccc1 [SJ000520925] |  | −127.9
71 | CCCN(CCCNc1c2ccc(Cl)cc2nc2ccc(OC)cc12)Cc1ccccc1O [SJ000520926] | −91.84 | 
72 | CCCN(CCCNc1c2ccc(Cl)cc2nc2ccc(OC)cc12)Cc1ccc(C)s1 [SJ000520927] |  | −124.8
73 | CCCN(CCCNc1c2ccc(Cl)cc2nc2ccc(OC)cc12)Cc1ccccc1C(F)(F)F [SJ000520928] | 14.17 | 
74 | CCCN(CCCNc1c2ccc(Cl)cc2nc2ccc(OC)cc12)Cc1ccc(Br)o1 [SJ000520929] |  | −137.3
75 | CCCN(CCCNc1c2ccc(Cl)cc2nc2ccc(OC)cc12)Cc1cccc(OC)c1O [SJ000520930] | −81.96 | 
76 | CCCN(CCCNc1c2ccc(Cl)cc2nc2ccc(OC)cc12)Cc1cc(F)ccc1OC [SJ000520931] | 1.847 | 

From patent publication US20240246941A1, “SUBSTITUTED 4-(3-AMINOPROP-1-YL)AMINOQUINOLINE ANALOGS AS MODULATORS OF MELANOMA-ASSOCIATED ANTIGEN 11 UBIQUITIN LIGASE” (ST. JUDE CHILDREN'S RESEARCH HOSPITAL, INC., priority 2020, published 2024)
